Experimental data reported in ChEMBL document CHEMBL5532723, “Advances in Targeted Therapies for Inflammatory Diseases and Cancer: Exploring Cellular Mechanisms and Therapeutic Strategies” (ACS Med Chem Lett, 2024).

What was measured:
[1] = target: T1, Protein cereblon/Interleukin-1 receptor-associated kinase 4 (Homo sapiens, UniProt Q9NWZ3+Q96SW2); assay: PROTAC activity at CRBN/IRAK4 in human KARPAS-299 cells assessed as induction of IRAK4 degradation incubated for 24 hrs by TR-FRET assay; type: cell-based
Target sequence in this assay (Q9NWZ3 whole entry): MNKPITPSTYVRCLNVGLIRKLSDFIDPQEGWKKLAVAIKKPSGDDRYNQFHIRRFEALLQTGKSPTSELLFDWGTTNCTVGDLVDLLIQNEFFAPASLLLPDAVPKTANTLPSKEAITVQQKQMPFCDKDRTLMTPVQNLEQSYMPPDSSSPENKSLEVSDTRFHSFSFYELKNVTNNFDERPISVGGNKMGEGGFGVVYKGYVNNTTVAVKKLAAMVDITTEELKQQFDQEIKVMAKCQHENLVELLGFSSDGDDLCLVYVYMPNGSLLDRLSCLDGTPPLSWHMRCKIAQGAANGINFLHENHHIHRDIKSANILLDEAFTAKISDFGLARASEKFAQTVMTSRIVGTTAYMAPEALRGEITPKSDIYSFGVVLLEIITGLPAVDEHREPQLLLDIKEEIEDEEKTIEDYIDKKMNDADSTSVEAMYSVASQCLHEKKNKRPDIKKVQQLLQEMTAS
Target sequence in this assay (Q96SW2 whole entry): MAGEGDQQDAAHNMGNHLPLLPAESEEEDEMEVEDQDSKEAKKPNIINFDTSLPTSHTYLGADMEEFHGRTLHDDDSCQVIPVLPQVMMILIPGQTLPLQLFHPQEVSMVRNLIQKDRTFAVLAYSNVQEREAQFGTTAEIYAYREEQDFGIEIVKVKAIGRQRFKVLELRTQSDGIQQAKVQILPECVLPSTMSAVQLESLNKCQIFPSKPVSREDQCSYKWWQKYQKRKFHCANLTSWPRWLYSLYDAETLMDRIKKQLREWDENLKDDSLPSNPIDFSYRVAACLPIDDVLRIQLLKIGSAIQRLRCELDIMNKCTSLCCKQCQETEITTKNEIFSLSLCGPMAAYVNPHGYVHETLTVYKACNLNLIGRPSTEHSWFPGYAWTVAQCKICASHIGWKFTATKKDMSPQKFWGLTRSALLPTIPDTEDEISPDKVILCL

[2] = target: T1, Protein cereblon/Interleukin-1 receptor-associated kinase 4; assay: PROTAC activity at CRBN/IRAK4 in human KARPAS-299 cells assessed as induction of IRAK4 degradation incubated for 24 hrs by TR-FRET assay relative to control; type: cell-based
Target sequence in this assay (Q96SW2 whole entry, looked up): as the sequence (Q96SW2 whole entry) above
Target sequence in this assay (Q9NWZ3 whole entry, looked up): as the sequence (Q9NWZ3 whole entry) above

| Compound | DC50 [1] [nM] | Emax [2] [%] |
| --- | --- | --- |
| CC(C)(O)c1cc2nn([C@H]3CC[C@H](N4CCN(C5CN(c6cc(F)c([C@H]7CCC(=O)NC7=O)c(F)c6)C5)CC4)CC3)cc2cc1NC(=O)c1ccc2cc(C#N)cnn12 | 8.3 | 100 |
| CC(C)(O)c1cc2nn([C@H]3CC[C@H](N4CCN(CCc5cc(F)c([C@H]6CCC(=O)NC6=O)c(F)c5)CC4)CC3)cc2cc1NC(=O)c1ccc2cc(C#N)cnn12 | 3.7 | 99 |
| CC(C)(O)c1cc2nn([C@H]3CC[C@H](N4CCN(CCNc5cc(F)c(C6CCC(=O)NC6=O)c(F)c5)CC4)CC3)cc2cc1NC(=O)c1ccc2cc(C#N)cnn12 (some centres not stated) | 7.1 | 100 |
| CC(C)(O)c1cc2nn([C@H]3C[C@H](N4CCN(C(=O)C5CN(c6cc(F)c([C@H]7CCC(=O)NC7=O)c(F)c6)C5)CC4)C3)cc2cc1NC(=O)c1ccc2cc(C#N)cnn12 | 11 | 99 |

The next lines start with the values.

| DC50 [1] [nM] | Emax [2] [%] | Compound |
| --- | --- | --- |
| 5.2 | 94 | CC(C)(O)c1cc2nn(C34CC(N5CCN(CCc6cc(F)c([C@H]7CCC(=O)NC7=O)c(F)c6)CC5)(C3)C4)cc2cc1NC(=O)c1ccc2cc(C#N)cnn12 |
| 3.9 | 101 | CC(C)(O)c1cc2nn(C34CCC(N5CCN(CCc6cc(F)c([C@H]7CCC(=O)NC7=O)c(F)c6)CC5)(CC3)CC4)cc2cc1NC(=O)c1ccc2cc(C#N)cnn12 |
